The term pIC50 denotes the IC50 on a negative log10 scale, so that one unit is a factor of ten.

The values that follow come from patent US20260284051A1, “METHIONINE ADENOSYLTRANSFERASE 2A (MAT2A) INHIBITOR COMBINATIONS AND USES THEREOF” (INSILICO MEDICINE IP LIMITED, priority 2023, published 2026).

Each structure is given as a SMILES string. pIC50: −log10 of the molar value.

The target of the assay is MAT2A (Homo sapiens, UniProt P31153). The experiment in a line: MAT2A Biochemical Assay. Conditions: read-out: MAT2A enzymatic IC50. The procedure: Example A: MAT2A Biochemical Assay
Sequence of MAT2A (P31153 whole entry, species assumed): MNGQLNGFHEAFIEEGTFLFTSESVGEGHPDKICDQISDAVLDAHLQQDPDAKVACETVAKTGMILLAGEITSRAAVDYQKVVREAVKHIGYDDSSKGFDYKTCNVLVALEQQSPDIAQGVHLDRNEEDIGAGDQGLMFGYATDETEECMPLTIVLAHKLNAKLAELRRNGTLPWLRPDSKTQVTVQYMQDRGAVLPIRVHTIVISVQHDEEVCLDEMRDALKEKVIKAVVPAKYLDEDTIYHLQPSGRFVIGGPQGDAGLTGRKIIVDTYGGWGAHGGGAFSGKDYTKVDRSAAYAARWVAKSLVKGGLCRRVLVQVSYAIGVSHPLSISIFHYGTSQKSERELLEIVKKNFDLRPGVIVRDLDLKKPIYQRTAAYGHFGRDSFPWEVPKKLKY
Compounds described herein were tested as follows:
• (1). Prepared 1×Assay buffer. • (2). Preparation of compound concentration gradient: the compounds test condition were […], 3-fold dilution, 10 doses, singlet or duplicate. 100x concentration compounds were prepared in 384-well plate. Then used Echo 550 to transfer 250 nl to a 384-reaction plate for later use. Added 250 nl of 100% DMSO to the negative and positive control wells. • (3). Prepared 1.67× final concentration enzyme solution with 1×Assay buffer. • (4). Added 15 μl of 1.67× Enzyme solution to the compound wells and positive control wells; added 15 μl of 1×Assay buffer to the negative control wells. • (5). Centrifuged at 1000 rpm for 30 seconds and incubate for 15 minutes. • (6). Prepared 2.5× final concentration Substrate mix solution with 1×Assay buffer. • (7). Added 10 μl of 2.5× final concentration Substrate mix solution to start the reaction. • (8). Centrifuged at 1000 rpm for 30 seconds and incubate for 150 minutes. • (9). Added […] Biomol Green to stop the reaction, centrifuge at 1000 rpm for 30 seconds and incubate for 15 minutes. read O.D.620, process data.
• (1) Using GraphPad Prism 5.
[formula] • (3) Max signal was obtained from the positive control wells. • (4) Min signal was obtained from the negative control wells.

Turning to `C#CCNc1nc(=O)n(-c2cccnc2C)c2cc(C(F)(F)F)cc(OC)c12` [Example 36, 5-methoxy-1-(2-methylpyridin-3-yl)-4-(prop-2-yn-1-ylamino)-7-(trifluoromethyl)quinazolin-2(1H)-one], the pIC50 is over 7.30.
